According to patent US9815796B2 (Merck Sharp & Dohme Corp., priority 2013, dated 2017):

Tests used:
[1] = tested on: other PDE isoforms; conditions: reported in Brandon et al., Annual Reports in Medicinal Chemistry 42: 4-5, 2007; cited from earlier work
[2] = reported in Brandon et al., Annual Reports in Medicinal Chemistry 42: 4-5, 2007; cited from earlier work
[3] = target: human PDE2A1 (Homo sapiens (Human), UniProt O00408); assay: IMAP FP PDE selectivity panel, human PDE2A1; format: biochemical; conditions: Human PDE2, Lab B; read-out: Human PDE2 Ki (nM) - Lab B
Chain of human PDE2A1 (O00408 other isoform, or with tags, fused parts or gaps): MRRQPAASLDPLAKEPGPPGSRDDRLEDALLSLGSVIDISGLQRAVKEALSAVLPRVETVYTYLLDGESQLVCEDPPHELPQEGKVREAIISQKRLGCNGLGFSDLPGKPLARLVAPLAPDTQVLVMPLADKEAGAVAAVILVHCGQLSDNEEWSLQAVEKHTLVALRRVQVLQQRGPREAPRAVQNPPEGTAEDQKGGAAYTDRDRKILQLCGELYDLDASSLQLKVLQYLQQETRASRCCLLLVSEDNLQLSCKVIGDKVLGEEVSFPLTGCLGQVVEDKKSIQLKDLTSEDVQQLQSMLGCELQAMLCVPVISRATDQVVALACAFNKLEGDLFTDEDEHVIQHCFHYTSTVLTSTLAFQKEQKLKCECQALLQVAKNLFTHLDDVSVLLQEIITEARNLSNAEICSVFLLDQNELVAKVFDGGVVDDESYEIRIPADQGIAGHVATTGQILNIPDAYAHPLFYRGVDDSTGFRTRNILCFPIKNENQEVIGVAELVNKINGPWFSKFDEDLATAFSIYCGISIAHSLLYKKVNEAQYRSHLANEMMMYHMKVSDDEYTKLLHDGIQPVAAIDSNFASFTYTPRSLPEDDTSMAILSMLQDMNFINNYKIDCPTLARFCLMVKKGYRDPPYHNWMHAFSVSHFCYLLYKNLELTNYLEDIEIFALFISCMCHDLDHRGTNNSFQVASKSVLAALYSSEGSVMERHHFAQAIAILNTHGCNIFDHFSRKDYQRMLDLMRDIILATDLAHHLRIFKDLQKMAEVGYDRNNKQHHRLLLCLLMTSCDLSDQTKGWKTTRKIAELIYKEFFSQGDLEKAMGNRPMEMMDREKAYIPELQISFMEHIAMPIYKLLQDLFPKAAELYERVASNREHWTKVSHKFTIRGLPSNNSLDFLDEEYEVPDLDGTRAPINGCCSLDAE
Outline: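 IMAP FP format: substrate 50 nM FAM-cAMP plus 1000 nM cGMP, enzyme (insect-cell GST-tagged human PDE2A1) at ~20% conversion, 60 min reaction at room temperature. Apparent inhibition constants calculated from parallel/perpendicular fluorescence with KM 10,000 nM.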

[4] = target: Rhesus PDE2A3 (Macaca mulatta, UniProt B3VTJ2); assay: PDE2 fluorescence polarization (IMAP FP) inhibition assay, rhesus enzyme; format: biochemical, rhesus macaque; conditions: Rhesus PDE2, Lab B; read-out: Rhesus PDE2 Ki (nM) - Lab B
Chain of Rhesus PDE2A3 (B3VTJ2 1-941): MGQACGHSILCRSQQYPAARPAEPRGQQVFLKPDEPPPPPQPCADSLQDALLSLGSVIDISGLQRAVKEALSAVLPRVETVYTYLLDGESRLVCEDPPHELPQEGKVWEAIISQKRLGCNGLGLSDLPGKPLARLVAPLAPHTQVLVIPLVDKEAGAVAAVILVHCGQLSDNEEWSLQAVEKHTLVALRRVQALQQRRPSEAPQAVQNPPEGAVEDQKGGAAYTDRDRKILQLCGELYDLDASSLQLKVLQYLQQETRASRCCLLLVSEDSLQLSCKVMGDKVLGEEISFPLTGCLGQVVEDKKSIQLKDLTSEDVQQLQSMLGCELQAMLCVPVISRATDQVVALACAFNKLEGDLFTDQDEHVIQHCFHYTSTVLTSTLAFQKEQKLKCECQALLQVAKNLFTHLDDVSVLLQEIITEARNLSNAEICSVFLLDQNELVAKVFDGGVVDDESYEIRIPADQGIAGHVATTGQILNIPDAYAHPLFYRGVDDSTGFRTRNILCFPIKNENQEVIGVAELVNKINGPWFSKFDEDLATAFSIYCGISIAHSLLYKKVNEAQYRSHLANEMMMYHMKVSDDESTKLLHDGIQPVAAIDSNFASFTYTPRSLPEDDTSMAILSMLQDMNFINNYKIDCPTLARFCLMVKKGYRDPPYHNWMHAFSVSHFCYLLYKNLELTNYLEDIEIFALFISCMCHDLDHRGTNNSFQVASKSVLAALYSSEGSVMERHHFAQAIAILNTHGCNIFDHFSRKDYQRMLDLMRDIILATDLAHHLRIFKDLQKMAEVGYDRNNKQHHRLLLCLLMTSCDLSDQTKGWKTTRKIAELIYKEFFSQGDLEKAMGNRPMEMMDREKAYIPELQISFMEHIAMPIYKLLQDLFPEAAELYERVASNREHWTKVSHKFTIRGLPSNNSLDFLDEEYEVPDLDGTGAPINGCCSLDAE
Outline: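 IMAP FP (mP from parallel and perpendicular fluorescence against substrate-only control) was read ≥1 h after adding binding reagent. The preceding 60 min room-temperature reaction contained FAM-cAMP (50 nM) and cGMP (1 uM) in pH 7.2 Tris buffer with MgCl2 and DTT. Enzyme was supernatant of sonicated AD293 cells expressing rhesus PDE2A3; compounds were 3-fold titrated, DMSO 1% final.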

Ki [3] | Ki [4] | Compound | potency at other PDE isoforms [1] | brain penetration [2]
– | – | COc1ccc(Cc2nn3c([C@@H](CCCc4ccccc4)[C@@H](C)O)nc(C)c3c(=O)[nH]2)cc1OC [BAY 60-7550] | significant potency at other PDE isoforms | limited brain penetration
2.1 nM | 2.8 nM | COc1ccc(Cc2nc(C(=O)N[C@@H](c3ccc(SC(F)(F)F)cc3)C3CC3)cc(=O)[nH]2)cc1F [Example 523, N-[(R)-cyclopropyl{4-[(trifluoromethyl)sulfanyl]phenyl}methyl]-2-(3-fluoro-4-methoxybenzyl)-6-oxo-1,6-dihydropyrimidine-4-carboxamide] | – | –
2.1 nM | 2.1 nM | COc1ccc(Cc2nc(C(=O)N[C@@H](c3ccc(OC(F)(F)F)cc3)C3CC3)cc(=O)[nH]2)cc1F [Example 524, N-{(R)-cyclopropyl[4-(trifluoromethoxy)phenyl]methyl}-2-(3-fluoro-4-methoxybenzyl)-6-oxo-1,6-dihydropyrimidine-4-carboxamide] | – | –
1.9 nM | 2.3 nM | COc1ccc(Cc2nc(C(=O)N[C@@H](c3ccc(C(F)(F)F)cc3)C3CC3)cc(=O)[nH]2)cc1F [Example 525, N-{(R)-cyclopropyl[4-(trifluoromethyl)phenyl]methyl}-2-(3-fluoro-4-methoxybenzyl)-6-oxo-1,6-dihydropyrimidine-4-carboxamide] | – | –
3.9 nM | 4.1 nM | CC[C@@H](NC(=O)c1cc(=O)[nH]c(Cc2ccc(OC)c(F)c2)n1)c1ccc(S(F)(F)(F)(F)F)cc1 [Example 526, 2-(3-fluoro-4-methoxybenzyl)-6-oxo-N-{(1R)-1-[4-(pentafluoro-λ^6-sulfanyl)phenyl]propyl}-1,6-dihydropyrimidine-4-carboxamide] | – | –
3 nM | 3.1 nM | CC[C@@H](NC(=O)c1cc(=O)[nH]c(Cc2ccc(OC)c(F)c2)n1)c1ccc(C(F)(F)F)c(F)c1 [Example 527, 2-(3-fluoro-4-methoxybenzyl)-N-{(1R)-1-[3-fluoro-4-(trifluoromethyl)phenyl]propyl}-6-oxo-1,6-dihydropyrimidine-4-carboxamide] | – | –
1.1 nM | 1.2 nM | CC[C@@H](NC(=O)c1cc(=O)[nH]c(Cc2ccc(OC)c(F)c2)n1)c1ccc(OC(F)(F)F)c(F)c1 [Example 528, 2-(3-fluoro-4-methoxybenzyl)-N-{(1R)-1-[3-fluoro-4-(trifluoromethoxy)phenyl]propyl}-6-oxo-1,6-dihydropyrimidine-4-carboxamide] | – | –
2 nM | 2.2 nM | CC[C@@H](NC(=O)c1cc(=O)[nH]c(Cc2ccc(OC)c(F)c2)n1)c1ccc(OC(F)(F)F)cc1 [Example 529, 2-(3-fluoro-4-methoxybenzyl)-6-oxo-N-{(1R)-1-[4-(trifluoromethoxy)phenyl]propyl}-1,6-dihydropyrimidine-4-carboxamide] | – | –
28 nM | 47 nM | Cc1nc(C(=O)N[C@H](C)c2ccc(C3(C)CC3)cc2)cc(=O)[nH]1 [Example 530, 2-methyl-N-{(1R)-1-[4-(1-methylcyclopropyl)phenyl]ethyl}-6-oxo-1,6-dihydropyrimidine-4-carboxamide] | – | –
10 nM | 11 nM | Cc1nc(C(=O)NC(C)(C)c2ccc(C(F)(F)F)cc2Cl)cc(=O)[nH]1 [Example 593, N-{1-[2-chloro-4-(trifluoromethyl)phenyl]-1-methylethyl}-2-methyl-6-oxo-1,6-dihydropyrimidine-4-carboxamide] | – | –
22 nM | 30 nM | Cc1nc(C(=O)NC(C)(C)c2ccc(C(F)(F)F)cc2F)cc(=O)[nH]1 [Example 596, N-{1-[2-fluoro-4-(trifluoromethyl)phenyl]-1-methylethyl}-2-methyl-6-oxo-1,6-dihydropyrimidine-4-carboxamide] | – | –
8.2 nM | 8 nM | CCc1nc(C(=O)NC2(c3ccc(C(F)(F)F)c(F)c3)CC2)cc(=O)[nH]1 [Example 601, 2-ethyl-N-{1-[3-fluoro-4-(trifluoromethyl)phenyl]cyclopropyl}-6-oxo-1,6-dihydropyrimidine-4-carboxamide] | – | –
4.2 nM | 5.2 nM | CCc1nc(C(=O)NC2(c3ccc(OC(F)(F)F)c(F)c3)CC2)cc(=O)[nH]1 [Example 602] | – | –
70 nM | 68 nM | Cc1nc(C(=O)N[C@@H](c2ccc(OC(F)F)cc2)C2CC2)cc(=O)[nH]1 [Example 610, N-{(R)-cyclopropyl[4-(difluoromethoxy)phenyl]methyl}-2-methyl-6-oxo-1,6-dihydropyrimidine-4-carboxamide] | – | –
37 nM | 44 nM | Cc1nc(C(=O)N[C@@H](c2ccc(OC(F)F)cc2)C(C)C)cc(=O)[nH]1 [Example 611, N-{(1R)-1-[4-(difluoromethoxy)phenyl]-2-methylpropyl}-2-methyl-6-oxo-1,6-dihydropyrimidine-4-carboxamide] | – | –
11 nM | 11 nM | Cc1nc(C(=O)N[C@@H](c2ccc(C(F)(F)F)cc2)C2(C)CC2)cc(=O)[nH]1 [Example 612, 2-methyl-N-{(R)-(1-methylcyclopropyl)[4-(trifluoromethyl)phenyl]methyl}-6-oxo-1,6-dihydropyrimidine-4-carboxamide] | – | –
12 nM | 13 nM | Cc1nc(C(=O)N[C@@H](c2ccc(C(F)(F)F)c(F)c2)C2(C)CC2)cc(=O)[nH]1 [Example 613, N-[(R)-[3-fluoro-4-(trifluoromethyl)phenyl](1-methylcyclopropyl)methyl]-2-methyl-6-oxo-1,6-dihydropyrimidine-4-carboxamide] | – | –
17 nM | 20 nM | Cc1nc(C(=O)N[C@@H](c2ccc(C(C)(C)C)cc2)C2(C)CC2)cc(=O)[nH]1 [Example 614, N-[(R)-(4-tert-butylphenyl)(1-methylcyclopropyl)methyl]-2-methyl-6-oxo-1,6-dihydropyrimidine-4-carboxamide] | – | –
4 nM | 4.2 nM | Cc1nc(C(=O)N[C@@H](c2ccc(C(F)(F)F)cc2F)C(C)(C)C)cc(=O)[nH]1 [Example 617] | – | –
2 nM | 2 nM | Cc1nc(C(=O)N[C@@H](c2ccc(S(F)(F)(F)(F)F)cc2)C(C)(C)C)cc(=O)[nH]1 [Example 618, N-{(1R)-2,2-dimethyl-1-[4-(pentafluoro-λ^6-sulfanyl)phenyl]propyl}-2-methyl-6-oxo-1,6-dihydropyrimidine-4-carboxamide] | – | –
19 nM | 15 nM | Cc1nc(C(=O)N[C@H](C)c2ccc(C3CC3)c(F)c2)cc(=O)[nH]1 [Example 620, N-[(1R)-1-(4-cyclopropyl-3-fluorophenyl)ethyl]-2-methyl-6-oxo-1,6-dihydropyrimidine-4-carboxamide] | – | –
5.2 nM | 5.1 nM | Cc1nc(C(=O)N[C@@H](c2ccc(C3CC3)c(F)c2)C(C)C)cc(=O)[nH]1 [Example 621, N-[(1R)-1-(4-cyclopropyl-3-fluorophenyl)-2-methylpropyl]-2-methyl-6-oxo-1,6-dihydropyrimidine-4-carboxamide] | – | –
42 nM | 32 nM | Cc1nc(C(=O)NC2(c3ccc(S(F)(F)(F)(F)F)cc3)CC2)cc(=O)[nH]1 [Example 622, 2-methyl-6-oxo-N-{1-[4-(pentafluoro-λ^6-sulfanyl)phenyl]cyclopropyl}-1,6-dihydropyrimidine-4-carboxamide] | – | –
31 nM | 29 nM | Cc1nc(C(=O)NC2(c3ccc(C(C)(C)C)cc3)CC2)cc(=O)[nH]1 [Example 623, N-[1-(4-tert-butylphenyl)cyclopropyl]-2-methyl-6-oxo-1,6-dihydropyrimidine-4-carboxamide] | – | –
87 nM | 80 nM | CC(C)(NC(=O)c1cc(=O)[nH]c(C2CC2)n1)c1ccc(S(F)(F)(F)(F)F)cc1 [Example 680, 2-cyclopropyl-N-{1-methyl-1-[4-(pentafluoro-λ^6-sulfanyl)phenyl]ethyl}-6-oxo-1,6-dihydropyrimidine-4-carboxamide] | – | –
